Source: patent US12729192B2, “CDK9 inhibitor and use thereof” (PHARMABLOCK SCIENCES (NANJING), INC., priority 2020, dated 2026)

Columns and labels:
Type in all cases: biochemical
Conditions in all cases: 10 μM ATP, 2 h at room temperature
CDK9 = CDK9 (Homo sapiens, UniProt P50750); test: CDK9 kinase activity inhibition (ADP-Glo)
Method: (§1) CDK9 kinase was manufactured by the company or commercially available. CDK1, CDK2 and CDK7 were purchased from Carna Biosciences, Inc. ADP-Glo™ kit was purchased from Promega Corporation. Dithiothreitol (DTT), Tween-20, dimethylsulfoxide (DMSO), bovine serum albumin (BSA) and Tris base were obtained from Sigma at the available highest level of purity.
(§2) General procedures for CDK inhibition determination: The determination was performed in a buffer consisting of 50 μM DTT, 0.1% BSA, 40 mM Tris-HCl pH=7.5 and 20 mM MgCl2. The compound dissolved in DMSO and CDK enzymes were diluted with the buffer. 1 μL of the compound solution in 5% DMSO and 2 μL of the CDK enzyme solution were added to a white low-volume 384-well microtiter plate and incubated for 20 min at room temperature. Ultra pure ATP and the substrate polypeptide (purchased from GenScript Biotech Corporation) were diluted together into the buffer and added to a mixed solution of the compound and the enzyme, 2 μL per well. They were incubated for 2 h at room temperature.
(§3) After the reaction was completed, 5 μL of ADP-Glo™ reagent was added to each well and incubated for 40 min at room temperature, and then 10 μL of test reagent was added to each well and incubated for 30 mi at room temperature. Chemical luminescence values were measured by using a Tecan (Männedorf, Switzerland) multifunctional plate reader Spark for plate reading. The IC50 value of the inhibitor was obtained by fitting the chemical luminescence intensity ratio in the S-shaped dosage reaction curve using Prism 7 (La Jolla, 15 CA) relative to the concentration of the inhibitor.

CDK2 = molecular target: T1, CDK2 (Homo sapiens, UniProt P24941); test: CDK2 kinase activity inhibition (ADP-Glo)
T1 construct: purchased Carna Biosciences, Inc
Method: as §1, §2, §3

CDK7 = molecular target: T2, CDK7 (Homo sapiens, UniProt P50613); test: CDK7 kinase activity inhibition (ADP-Glo)
T2 construct: purchased Carna Biosciences, Inc
Method: as §1, §2, §3

Sequence of CDK9 (P50750 whole entry): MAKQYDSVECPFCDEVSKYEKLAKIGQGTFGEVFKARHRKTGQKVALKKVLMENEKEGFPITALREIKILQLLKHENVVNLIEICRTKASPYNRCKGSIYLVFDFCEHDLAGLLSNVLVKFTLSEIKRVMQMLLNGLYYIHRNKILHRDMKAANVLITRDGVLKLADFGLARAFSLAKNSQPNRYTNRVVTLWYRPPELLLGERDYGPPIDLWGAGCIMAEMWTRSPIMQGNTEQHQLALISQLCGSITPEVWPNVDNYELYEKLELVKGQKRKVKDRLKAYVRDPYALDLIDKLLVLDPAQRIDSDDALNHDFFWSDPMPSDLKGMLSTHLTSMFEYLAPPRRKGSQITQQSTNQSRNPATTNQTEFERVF
Sequence of CDK9 (O60563 whole entry partner): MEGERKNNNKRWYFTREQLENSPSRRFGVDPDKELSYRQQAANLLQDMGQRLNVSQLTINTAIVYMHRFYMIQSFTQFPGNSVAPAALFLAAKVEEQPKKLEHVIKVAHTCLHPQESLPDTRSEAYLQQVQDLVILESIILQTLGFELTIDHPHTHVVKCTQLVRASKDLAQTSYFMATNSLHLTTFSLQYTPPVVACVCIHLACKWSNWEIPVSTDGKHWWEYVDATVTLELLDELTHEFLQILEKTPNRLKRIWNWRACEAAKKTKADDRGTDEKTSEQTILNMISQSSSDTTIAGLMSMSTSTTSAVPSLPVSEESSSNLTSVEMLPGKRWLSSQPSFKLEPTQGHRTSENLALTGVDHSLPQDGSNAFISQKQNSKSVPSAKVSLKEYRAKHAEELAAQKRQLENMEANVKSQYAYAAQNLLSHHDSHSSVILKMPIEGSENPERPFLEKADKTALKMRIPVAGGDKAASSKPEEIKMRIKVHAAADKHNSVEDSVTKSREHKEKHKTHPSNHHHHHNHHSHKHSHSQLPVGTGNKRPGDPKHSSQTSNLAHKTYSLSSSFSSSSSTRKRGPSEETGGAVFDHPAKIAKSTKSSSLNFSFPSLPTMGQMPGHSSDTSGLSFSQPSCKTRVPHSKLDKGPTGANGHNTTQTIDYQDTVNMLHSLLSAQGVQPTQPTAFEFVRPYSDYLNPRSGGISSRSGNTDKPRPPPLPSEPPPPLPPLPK
T2 sequence (P50613 whole entry): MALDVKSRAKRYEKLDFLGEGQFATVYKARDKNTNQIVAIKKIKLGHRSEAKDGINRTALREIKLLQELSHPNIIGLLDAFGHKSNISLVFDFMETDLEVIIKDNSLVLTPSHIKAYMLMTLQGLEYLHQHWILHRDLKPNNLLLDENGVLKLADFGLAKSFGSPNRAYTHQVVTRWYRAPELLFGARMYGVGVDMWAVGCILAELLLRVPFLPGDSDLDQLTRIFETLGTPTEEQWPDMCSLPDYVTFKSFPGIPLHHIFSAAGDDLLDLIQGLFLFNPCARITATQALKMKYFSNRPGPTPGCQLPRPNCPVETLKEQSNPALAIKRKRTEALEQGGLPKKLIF
T2 sequence (P51946 whole entry partner): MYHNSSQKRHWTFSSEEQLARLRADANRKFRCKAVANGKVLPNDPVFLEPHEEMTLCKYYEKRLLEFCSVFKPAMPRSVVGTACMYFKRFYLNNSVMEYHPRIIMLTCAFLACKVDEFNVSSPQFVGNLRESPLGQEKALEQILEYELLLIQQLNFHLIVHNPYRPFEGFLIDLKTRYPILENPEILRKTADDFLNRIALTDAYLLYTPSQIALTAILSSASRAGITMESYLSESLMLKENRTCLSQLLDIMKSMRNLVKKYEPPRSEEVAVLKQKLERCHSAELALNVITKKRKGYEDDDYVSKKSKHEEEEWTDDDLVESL
T2 sequence (P51948 whole entry partner): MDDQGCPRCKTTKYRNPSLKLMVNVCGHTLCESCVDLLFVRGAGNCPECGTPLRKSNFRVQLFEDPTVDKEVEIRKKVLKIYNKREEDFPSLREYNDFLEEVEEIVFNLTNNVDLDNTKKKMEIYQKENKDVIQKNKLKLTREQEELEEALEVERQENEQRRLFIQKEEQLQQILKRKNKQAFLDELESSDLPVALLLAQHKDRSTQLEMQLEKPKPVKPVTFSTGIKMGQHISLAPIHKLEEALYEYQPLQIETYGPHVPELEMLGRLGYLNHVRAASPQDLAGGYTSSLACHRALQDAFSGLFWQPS

SMILES | IC50 (CDK9) [nM] | IC50 (CDK2) [nM] | IC50 (CDK7) [nM]
CC(=O)NC[C@H]1CCC(F)(F)CN1C(=O)c1nc(Nc2cc(C(C)(C)C)sn2)ccc1C [Compound 13, (R)—N-((1-(6-((5-(t-butyl)isothiazol-3-yl)amino)-3-methylpyridine-2-carbonyl)-5,5-difluoropiperidin-2-yl)methyl)acetamide] | 64 | 704 | > 10000
CC(=O)NC[C@H]1CCC(F)(F)CN1C(=O)c1nc(Nc2cc(-c3cnn4c3CCC4)c(F)cn2)ccc1C [Compound 14, (R)—N-((1-(6-((4-(5,6-dihydro-4H-pyrrolo[1,2-b]pyrazol-3-yl)-5-fluoropyridin-2-yl)amino)-3-methylpyridine-2-carbonyl)-5,5-difluoropiperidin-2-yl)methyl)acetamide] | 107 | 1600 | 1880
CC(=O)NC[C@H]1CCC(F)(F)CN1C(=O)c1nc(Nc2cc(OC3CCC3)ccn2)ccc1C [Compound 16, (R)—N-((1-(6-((4-cyclobutoxypyridin-2-yl)amino)-3-methylpyridine-2-carbonyl)-5,5-difluoropiperidin-2-yl)methyl)acetamide] | 54.6 | 6350 | > 10000
CC(=O)NC[C@H]1CCC(F)(F)CN1C(=O)c1nc(Nc2cc(-c3cnn4c3CCC4)ccn2)ccc1C [Compound 18, (R)—N-((1-(6-((4-(5,6-dihydro-4H-pyrrolo[1,2-b]pyrazol-3-yl)pyridin-2-yl)amino)-3-methylpyridine-2-carbonyl)-5,5-difluoropiperidin-2-yl)methyl)acetamide] | 33.6 | 3310 | –
CCOc1ccnc(Nc2ccc(C)c(C(=O)N3CC(F)(F)CC[C@@H]3CN)n2)c1 [Compound 37, (R)-(2-(aminomethyl)-5,5-difluoropiperidin-1-yl)(6-((4-ethoxypyridin-2-yl)amino)-3-methylpyridin-2-yl)methanone] | 26.6 | 3560 | –
Cc1ccc(Nc2cc(OC(F)(F)F)ccn2)nc1C(=O)N1CCCC(F)(F)CC1 [Compound 38, (4,4-Difluoroazepin-1-yl)(3-methyl-6-((4-(trifluoromethoxy)pyridin-2-yl)amino)pyridin-2-yl)methanone] | 267 | 447 | –
CC(=O)N[C@@H]1CN(C(=O)c2nc(Nc3cc(OC(F)(F)F)ccn3)ccc2C)CC(F)(F)C1 [Compound 42, (S)—N-(5,5-difluoro-1-(3-methyl-6-((4-(trifluoromethoxy)pyridin-2-yl)amino)pyridine-2-carbonyl)piperidin-3-yl)acetamide] | 34.8 | 361 | –
CC(=O)N[C@H]1CN(C(=O)c2nc(Nc3cc(OC(F)(F)F)ccn3)ccc2C)CC(F)(F)C1 [Compound 43, (R)—N-(5,5-difluoro-1-(3-methyl-6-((4-(trifluoromethoxy)pyridin-2-yl)amino)pyridine-2-carbonyl)piperidin-3-yl)acetamide] | 167 | > 10000 | –
CC(=O)NC[C@H]1CCCCN1C(=O)c1nc(Nc2cc(OC(F)(F)F)ccn2)ccc1C [Compound 45, (R)—N-((1-(3-methyl-6-((4-(trifluoromethoxy)pyridin-2-yl)amino)pyridine-2-carbonyl)piperidin-2-yl)methyl)acetamide] | 19.9 | 884 | –
CCNC(=O)C1CCC(F)(F)CN1C(=O)c1nc(Nc2cc(OC(F)(F)F)ccn2)ccc1C (centres unmarked) [Compound 49, N-ethyl-5,5-difluoro-1-(3-methyl-6-((4-(trifluoromethoxy)pyridin-2-yl)amino)pyridine-2-carbonyl)piperidine-2-carboxamide] | 107 | 3210 | –
CC(=O)N[C@@H]1C[C@H](NC(=O)c2nc(Nc3cc(OC(F)(F)F)ccn3)ccc2C)CC(F)(F)C1 [Compound 50, N-((1S,5R)-5-acetamido-3,3-difluorocyclohexyl)-3-methyl-6-((4-4-trifluoromethoxypyridin-2-yl)amino)pyridine-2-carbonylamide] | 573 | > 10000 | –
CC(=O)N(C)C[C@H]1CCC(F)(F)CN1C(=O)c1nc(Nc2cc(OC(F)(F)F)ccn2)ccc1C [Compound 52, (R)—N-((5,5-difluoro-1-(3-methyl-6-((4-(trifluoromethoxy)pyridin-2-yl)amino)pyridine-2-carbonyl)piperidin-2-yl)methyl)-N-methylacetamide] | 14.6 | 658 | –
CC(=O)NC[C@H]1CCC(F)(F)CN1S(=O)(=O)c1cc(Nc2cc(OC(F)(F)F)ccn2)ccc1C [Compound 58, (R)—N-((5,5-difluoro-1-((2-methyl-5-((4-(trifluoromethoxy)pyridin-2-yl)amino)phenyl)sulfonyl)piperidin-2-yl)methyl)acetamide] | > 10000 | > 10000 | –
CC(=O)NC[C@H]1CCC(F)(F)CN1Cc1nc(Nc2cc(OC(F)(F)F)ccn2)ccc1C [Compound 62, (R)—N-((5,5-difluoro-1-((3-methyl-6-((4-(trifluoromethoxy)pyridin-2-yl)amino)pyridin-2-yl)methyl)piperidin-2-yl)methyl)acetamide] | 531 | > 10000 | –
CC(C)(C)OC(=O)NC[C@H]1CCC(F)(F)CN1C(=O)c1nc(Nc2cc(OC(F)(F)F)ccn2)ccc1F [Compound 66] | 647 | 1260 | –
CC(=O)NC[C@H]1CCC(F)(F)CN1C(=O)c1cc(Nc2cc(OC(F)(F)F)ccn2)ncc1C [Compound 72, (R)—N-((5,5-difluoro-1-(5-methyl-2-((4-(trifluoromethoxy)pyridin-2-yl)amino)isonicotinoyl)piperidin-2-yl)methyl)acetamide] | 1310 | > 10000 | –
CC(=O)NC[C@H]1CCC(F)(F)CN1C(=O)c1nc(Nc2cc(OC(F)(F)F)ccn2)ncc1C [Compound 76, (R)—N-((5,5-difluoro-1-(5-methyl-2-((4-(trifluoromethoxy)pyridin-2-yl)amino)pyrimidine-4-carbonyl)piperidin-2-yl)methyl)acetamide] | 18.4 | 5780 | –

Other lines, results leading:

IC50 (CDK9) [nM] | IC50 (CDK2) [nM] | IC50 (CDK7) [nM] | SMILES
163 | > 10000 | > 10000 | CC(=O)NC[C@H]1CCC(F)(F)CN1C(=O)c1nc(Nc2cc3[nH]ccc3cn2)ccc1C [Compound 12, (R)—N-((1-(6-((1H-pyrrolo[3,2-c]pyridin-6-yl)amino)-3-methylpyridine-2-carbonyl)-5,5-difluoropiperidin-2-yl)methyl)acetamide]
44.1 | 1230 | – | CC(=O)NC[C@H]1CCC(F)(F)CN1C(=O)c1nc(Nc2cc(C3CCCC3)ccn2)ccc1C [Compound 20, (R)—N-((1-(6-((4-cyclopentylpyridin-2-yl)amino)-3-methylpyridine-2-carbonyl)-5,5-difluoropiperidin-2-yl)methyl)acetamide]
182 | > 10000 | – | CC(=O)NC[C@H]1CCC(F)(F)CN1C(=O)c1nc(Nc2cc(N3CCCC3)ccn2)ccc1C [Compound 21, (R)—N-((5,5-difluoro-1-(3-methyl-6-((4-(pyrrolidin-1-yl)pyridin-2-yl)amino)pyridine-2-carbonyl)piperidin-2-yl)methyl)acetamide]
4620 | > 10000 | – | CC(=O)NC[C@H]1CCC(F)(F)CN1C(=O)c1nc(Nc2ncccn2)ccc1C [Compound 23, (R)—N-((5,5-difluoro-1-(3-methyl-6-(pyrimidin-2-ylamino)pyridine-2-carbonyl)piperidin-2-yl)methyl)acetamide]
218 | > 10000 | – | CC(=O)NC[C@H]1CCC(F)(F)CN1C(=O)c1nc(Nc2ccncn2)ccc1C [Compound 25, (R)—N-((5,5-difluoro-1-(3-methyl-6-(pyrimidin-4-ylamino)pyridine-2-carbonyl)piperidin-2-yl)methyl)acetamide]
17.8 | 3610 | – | CC(=O)NC[C@H]1CCC(F)(F)CN1C(=O)c1nc(Nc2cnccn2)ccc1C [Compound 26, (R)—N-((5,5-difluoro-1-(3-methyl-6-(pyrazin-2-ylamino)pyridine-2-carbonyl)piperidin-2-yl)methyl)acetamide]
5710 | > 10000 | – | CC(=O)NC[C@H]1CCC(F)(F)CN1C(=O)c1nc(Nc2ncccc2OC(F)(F)F)ccc1C [Compound 29, (R)—N-((5,5-difluoro-1-(3-methyl-6-((3-(trifluoromethoxy)pyridin-2-yl)amino)pyridine-2-carbonyl)piperidin-2-yl)methyl)acetamide]
23 | 679 | – | CC(=O)NCC1CCC(F)(F)CN1C(=O)c1nc(Nc2cc(OC(F)(F)F)ccn2)ccc1C (centres unmarked) [Compound 44, N-((5,5-difluoro-1-(3-methyl-6-((4-(trifluoromethoxy)pyridin-2-yl)amino)pyridine-2-carbonyl)piperidin-2-yl)methyl)acetamide]
28.3 | > 10000 | – | CNC(=O)c1ccnc(Nc2ccc(C)c(C(=O)N3CC(F)(F)CC[C@@H]3CNC(C)=O)n2)c1 [Compound 55, (R)-2-((6-(2-(acetamidomethyl)-5,5-difluoropiperidine-1-carbonyl)-5-methylpyridin-2-yl)amino)-N-methyl isonicotinamide]
